From patent US20230021448A1, “COMPOUNDS AND COMPOSITIONS FOR TREATING CONDITIONS ASSOCIATED WITH STING ACTIVITY” (IFM Due, Inc., priority 2019, published 2023)

Biological target: T1, STING (Homo sapiens, UniProt Q86WV6, G230A/H232R/R293Q/R71H)
T1 construct: host or cells: THP1-Dual KO-IFNAR2 cells
Experiment: STING reporter assay: luciferase reporter activity in THP1-Dual KO-IFNAR2 cells stimulated with 2'3'cGAMP
Type: cell-based
Settings: 2′3′cGAMP 15 μM final, 24h, read-out: hSTING: EC50
Description: STING pathway activation by the compounds described herein was measured using THIP1-Dua1™ cells (KO-IFNAR2).
TTIP1-Dual™ KO-IFNAR2 Cells (obtained from invivogen) were maintained in RPMI, 10% FCS, 5 ml P/S, 2 mM L-glut, 10 mM Hepes, and 1 mM sodium pyruvate. Compounds were spotted in empty 384 well tissue culture plates (Greiner 781182) by Echo for a final concentration of 0.0017-100 μM. Cells were plated into the TC plates at 40 μL per well, 2×10E6 cells/mL. For activation with STING ligand, 2′3′cGAMP (MW 718.38, obtained from Invivogen), was prepared in Optimem media.
The following solutions were prepared for each 1×384 plate: • Solution A: 2 mL Optimem with one of the following stimuli: • […] • Solution B: 2 mL Optimem with 60 μL Lipofectamine 2000->Incubate 5 min at RT
2 mL of solution A and 2 ml Solution B was mixed and incubated for 20 min at room temperature (RT). 20 uL of transfection solution (A+B) was added on top of the plated cells, with a final 2′3′cGAMP concentration of 15 μM. The plates were then centrifuged immediately at 340 g for 1 minute, after which they were incubated at 37° C., 5% C02, >98% humidity for 24h. Luciferase reporter activity was then measured. EC50 values were calculated by using standard methods known in the art.
Luciferase reporter assay: 10 μL of supernatant from the assay was transferred to white 384-plate with flat bottom and squared wells. One pouch of QUANTI-Luc™ Plus was dissolved in 25 mL of water. 100 μL of QLC Stabilizer per 25 mL of QUANTI-Luc™ Plus solution was added. 50 μL of QUANTI-Luc™ Plus/QLC solution per well was then added. Luminescence was measured on a Platereader (e.g., Spectramax I3X (Molecular Devices GF3637001)).
Luciferase reporter activity was then measured. EC50 values were calculated by using standard methods known in the art.

T1 sequence (Q86WV6 whole entry R71H/G230A/H232R/R293Q): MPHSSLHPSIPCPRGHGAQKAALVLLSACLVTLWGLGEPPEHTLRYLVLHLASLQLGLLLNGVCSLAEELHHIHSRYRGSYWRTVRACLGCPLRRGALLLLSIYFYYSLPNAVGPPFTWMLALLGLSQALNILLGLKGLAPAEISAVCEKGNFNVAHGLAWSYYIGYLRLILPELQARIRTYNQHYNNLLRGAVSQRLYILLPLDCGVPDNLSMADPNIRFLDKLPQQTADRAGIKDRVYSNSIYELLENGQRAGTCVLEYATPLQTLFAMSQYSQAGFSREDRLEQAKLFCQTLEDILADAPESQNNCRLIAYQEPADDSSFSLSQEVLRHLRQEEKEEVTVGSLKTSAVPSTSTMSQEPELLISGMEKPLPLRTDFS

| Compound | EC50 |
| --- | --- |
| O=C(Nc1c[nH]c2cc(F)c(F)cc12)C(=O)NC1CCOC2(CCCC2)C1 (single isomer, unassigned) [Compound 243] | 1000 to 5000 nM |
| O=C(Nc1c[nH]c2cc(F)c(F)cc12)C(=O)NC1CCOC2(CCCC2)C1 (single isomer, unassigned) [Compound 244] | 1000 to 5000 nM |
| O=C(Nc1c[nH]c2cc(F)c(F)cc12)C(=O)NC1CCC2(CCCC2)C1 (single isomer, unassigned) [Compound 245] | 200 to 1000 nM |
| O=C(Nc1c[nH]c2cc(F)c(F)cc12)C(=O)NC1CCC2(CCCC2)C1 (single isomer, unassigned) [Compound 246] | 200 to 1000 nM |
| O=C(Nc1c[nH]c2cc(F)c(F)cc12)C(=O)NC1CCC2(CCCCC2)C1 (single isomer, unassigned) [Compound 247] | 200 to 1000 nM |
| O=C(Nc1c[nH]c2cc(F)c(F)cc12)C(=O)NC1CCCC2(CCCCC2)C1 (single isomer, unassigned) [Compound 257] | 200 to 1000 nM |
| O=C(Nc1c[nH]c2cc(F)c(F)cc12)C(=O)NC1CCCC2(CCCCC2)C1 (single isomer, unassigned) [Compound 258] | 200 to 1000 nM |
| CC(NC(=O)C(=O)Nc1c[nH]c2cc(F)c(F)cc12)c1cc(C(F)(F)F)c(Cl)cn1 (single isomer, unassigned) [Compound 260] | 1000 to 5000 nM |
| CC(CN(C)c1ccccc1)NC(=O)C(=O)Nc1c[nH]c2cc(F)c(F)cc12 (single isomer, unassigned) [Compound 320] | 200 to 1000 nM |
| O=C(NCC(c1ccccc1)C(F)F)C(=O)Nc1c[nH]c2cc(F)c(F)cc12 (single isomer, unassigned) [Compound 347] | 200 to 1000 nM |
| O=C(Nc1c[nH]c2cc(F)c(F)cc12)C(=O)N[C@@H]1CCC2(CCCCC2)C1 (stereo in doubt) [Compound 248] | 40 to 200 nM |
| C[C@H](NC(=O)C(=O)Nc1c[nH]c2cc(F)c(F)cc12)c1cc(C(F)(F)F)c(Cl)cn1 (stereo in doubt) [Compound 259] | 40 to 200 nM |
| C[C@@H](CN(C)c1ccccc1)NC(=O)C(=O)Nc1c[nH]c2cc(F)c(F)cc12 (stereo in doubt) [Compound 319] | 200 to 1000 nM |
| O=C(Nc1ccc(C2CCCCC2)nc1)C(=O)Nc1c[nH]c2cc(F)c(F)cc12 [Compound 104] | 200 to 1000 nM |
| O=C(NCc1ccc(-c2ccccc2C(F)(F)F)cc1)C(=O)Nc1c[nH]c2cc(F)c(F)cc12 [Compound 108] | 200 to 1000 nM |
| O=C(Nc1c[nH]c2cc(F)c(F)cc12)C(=O)NC1CCC2(CCCCC2)CC1 [Compound 109] | 200 to 1000 nM |
| O=C(NCCC1CCC(F)(F)CC1)C(=O)Nc1c[nH]c2cc(F)c(F)cc12 [Compound 110] | 200 to 1000 nM |
| O=C(NCC1CC2C=CC1C2)C(=O)Nc1c[nH]c2cc(F)c(F)cc12 (centres unmarked) [Compound 111] | 200 to 1000 nM |
| O=C(NCC12CC3CC(CC(C3)C1)C2)C(=O)Nc1c[nH]c2cc(F)c(F)cc12 [Compound 112] | 1000 to 5000 nM |
| CCC1CCC(NC(=O)C(=O)Nc2c[nH]c3cc(F)c(F)cc23)CC1 (centres unmarked) [Compound 113] | 200 to 1000 nM |
| CCC1CCN(C(=O)C(=O)Nc2c[nH]c3cc(F)c(F)cc23)CC1 [Compound 117] | 1000 to 5000 nM |
| O=C(NCCC1CCCCC1)C(=O)Nc1c[nH]c2cc(F)c(F)cc12 [Compound 118] | 40 to 200 nM |
| O=C(Nc1c[nH]c2cc(F)c(F)cc12)C(=O)NC1CCC(Cc2ccccc2)CC1 (centres unmarked) [Compound 122] | 200 to 1000 nM |
| Cc1ccc(CNC(=O)C(=O)Nc2c[nH]c3ccc(Br)cc23)cc1C(F)(F)F [Compound 124] | 200 to 1000 nM |
| O=C(Nc1c[nH]c2cc(F)c(F)cc12)C(=O)N[C@H]1CCN(c2ccccc2)C1 [Compound 127] | 40 to 200 nM |
| O=C(Nc1c[nH]c2cc(F)c(F)cc12)C(=O)N[C@@H]1CCN(c2ccccc2)C1 [Compound 128] | 1000 to 5000 nM |
| CC(C)n1cc(-c2ccc3[nH]cc(NC(=O)C(=O)NCc4ccc(C(F)(F)F)c(Cl)c4)c3c2)cn1 [Compound 129] | 200 to 1000 nM |
| O=C(NCc1ccc(C(F)(F)F)c(Cl)c1)C(=O)Nc1c[nH]c2ccc(Br)cc12 [Compound 133] | 40 to 200 nM |
| Cc1ccc(CNC(=O)C(=O)Nc2c[nH]c3ccc(-c4cccc(CO)c4)cc23)cc1C(F)(F)F [Compound 134] | 200 to 1000 nM |

Now from value to compound:

| EC50 | Compound |
| --- | --- |
| 200 to 1000 nM | O=C(Nc1c[nH]c2cc(F)c(F)cc12)C(=O)N[C@@H]1CCC[C@H](Oc2ccc(C(F)(F)F)cc2)C1 (single isomer, unassigned) [Compound 220] |
| 40 to 200 nM | O=C(Nc1c[nH]c2cc(F)c(F)cc12)C(=O)N[C@H]1CCC[C@H](Oc2ccc(C(F)(F)F)cc2)C1 (single isomer, unassigned) [Compound 227] |
| 200 to 1000 nM | O=C(Nc1c[nH]c2cc(F)c(F)cc12)C(=O)N[C@@H]1CCC[C@@H](Oc2ccc(C(F)(F)F)cc2)C1 (single isomer, unassigned) [Compound 228] |
| 200 to 1000 nM | CCC(NC(=O)C(=O)Nc1c[nH]c2cc(F)c(F)cc12)c1cccc(C(F)(F)F)c1 (single isomer, unassigned) [Compound 235] |
| 200 to 1000 nM | CCC(NC(=O)C(=O)Nc1c[nH]c2cc(F)c(F)cc12)c1cccc(C(F)(F)F)c1 (single isomer, unassigned) [Compound 236] |
| 200 to 1000 nM | O=C(Nc1c[nH]c2cc(F)c(F)cc12)C(=O)NC(c1ccccc1)C(F)(F)F (single isomer, unassigned) [Compound 239, N-(5,6-difluoro-1H-indol-3-yl)-N′-(2,2,2-trifluoro-1-phenylethyl)oxalamide] |
| 200 to 1000 nM | O=C(Nc1c[nH]c2cc(F)c(F)cc12)C(=O)NC(c1ccccc1)C(F)(F)F (single isomer, unassigned) [Compound 240, N-(5,6-difluoro-1H-indol-3-yl)-N′-(2,2,2-trifluoro-1-phenylethyl)oxalamide] |
| 40 to 200 nM | CC(NC(=O)C(=O)Nc1c[nH]c2cc(F)c(F)cc12)c1ccc(C(F)(F)F)cc1 (single isomer, unassigned) [Compound 330] |
| 40 to 200 nM | C[C@H](NC(=O)C(=O)Nc1c[nH]c2cc(F)c(F)cc12)c1ccc(C(F)(F)F)cc1 (stereo in doubt) [Compound 329] |
| 200 to 1000 nM | O=C(Nc1ccc(C(F)(F)F)cn1)C(=O)Nc1c[nH]c2cc(F)c(F)cc12 [Compound 101] |
| 200 to 1000 nM | O=C(Nc1cccc(C(F)(F)F)c1)C(=O)Nc1c[nH]c2cc(F)c(F)cc12 [Compound 102] |
| 40 to 200 nM | Cc1cc(NC(=O)C(=O)Nc2c[nH]c3cc(F)c(F)cc23)cc(C(F)(F)F)c1 [Compound 103, N^1-(5,6-difluoro-1H-indol-3-yl)-N^2-(3-methyl-5-(trifluoromethyl)phenyl)oxalamide] |
| 40 to 200 nM | O=C(Nc1ccc(C2CCOCC2)cc1)C(=O)Nc1c[nH]c2cc(F)c(F)cc12 [Compound 105] |
| 40 to 200 nM | Cc1ccc(CNC(=O)C(=O)Nc2c[nH]c3cc(F)c(F)cc23)cc1C(F)(F)F [Compound 107] |
| 1000 to 5000 nM | CN(C(=O)C(=O)Nc1c[nH]c2cc(F)c(F)cc12)c1ccc(C(F)(F)F)cc1 [Compound 114] |
| 40 to 200 nM | O=C(Nc1ccc(C(F)(F)F)cc1)C(=O)Nc1c[nH]c2cc(F)c(F)cc12 [Compound 115, N1-(5,6-difluoro-1H-indol-3-yl)-N2-(4-(trifluoromethyl)phenyl) oxalamide] |
| 200 to 1000 nM | O=C(Nc1ccc(C(F)(F)F)cc1)C(=O)Nc1c[nH]c2ccccc12 [Compound 116, N1-(1H-indol-3-yl)-N2-(4-(trifluoromethyl)phenyl)oxalamide] |
| 40 to 200 nM | O=C(NCc1ccc(C(F)(F)F)cn1)C(=O)Nc1c[nH]c2cc(F)c(F)cc12 [Compound 119, N-(5,6-difluoro-1H-indol-3-yl)-N′-[[5-(trifluoromethyl)pyridin-2-yl]methyl]ethanediamide] |
| 40 to 200 nM | O=C(NCc1ccc(C(F)(F)F)c(Cl)c1)C(=O)Nc1c[nH]c2cc(F)c(F)cc12 [Compound 123] |
| 200 to 1000 nM | CC(C)(NC(=O)C(=O)Nc1c[nH]c2cc(F)c(F)cc12)c1ccc(C(F)(F)F)cc1 [Compound 125] |
| 40 to 200 nM | O=C(NCc1cc(C(F)(F)F)ccn1)C(=O)Nc1c[nH]c2cc(F)c(F)cc12 [Compound 126] |
| 200 to 1000 nM | Cc1ccc(Cl)cc1NC(=O)C(=O)Nc1c[nH]c2cc(F)c(F)cc12 [Compound 130, N1-(5-chloro-2-methylphenyl)-N2-(5,6-difluoro-1H-indol-3-yl)oxalamide] |
| 200 to 1000 nM | O=C(NCc1ccc(F)c(OC(F)(F)F)c1)C(=O)Nc1c[nH]c2cc(F)c(F)cc12 [Compound 131, N1-(5,6-difluoro-1H-indol-3-yl)-N2-(4-fluoro-3-(trifluoromethoxy)benzyl) oxalamide] |
| 200 to 1000 nM | Cc1c(CNC(=O)C(=O)Nc2c[nH]c3cc(F)c(F)cc23)cccc1C(F)(F)F [Compound 132, N1-(5,6-difluoro-1H-indol-3-yl)-N2-(2-methyl-3-(trifluoromethyl)benzyl)oxalamide] |
